For data set [1], the system named is healthy mice. The experiment in a line: Acute toxicity, single intravenous administration to healthy mice. To be noted: single i.v. Format: in vivo. The procedure: In a separate experiment, acute toxicity was determined by single intravenous administration of AmB or C2′epiAmB to healthy mice, followed by monitoring for lethality.
Data set [2] has as its system primary human renal proximal tubule epithelial cells. The experiment in a line: WST-8 cell proliferation assay on primary RPTECs. The format is cell-based. As to conditions: concentration causing 90% loss of cell viability of primary human RPTECs, 24 hours. A general note: Tetrazolium dyes change colour on reduction, which living cells bring about.
Protocol: Primary human renal proximal tubule epithelial cells (RPTECs) were purchased from ATCC (Manassas, Va.) and immediately cultured upon receipt. Complete growth media was prepared using renal epithelial cell basal medium (ATCC, PCS-400-030), renal epithelial cell growth kit (ATCC, PCS-400-040), and penicillin-streptomycin (10 units/mL and 10 μg/mL). Complete media was stored at 4° C. in the dark and used within 28 days. Primary RPTECs were grown in CO2 incubator at 37° C. with an atmosphere of 95% air/5% CO2.
WST-8 cell proliferation assay kit (10010199) was purchased from Cayman Chemical Company (Ann Arbor, Mich.) and stored at −20° C. and used within 6 months of receipt. WST-8 reagent and electron mediator solution were thawed and mixed to prepare the WST-8 reagent solution. The solution was stored at −20° C. and used within one week.
A suspension of primary RPTECs in complete growth media was brought to a concentration of 1×10^5 cells/mL. A 96-well plate was seeded with 99 μL of the cell suspension and incubated at 37° C. with an atmosphere of 95% air/5% CO2 for 3 hours. Positive and negative controls were prepared by seeding with 100 μL of the cell suspension or 100 μL of the complete media. […] Following incubation, the 96-well plate was mixed in a shaking incubator at 200 rpm for 1 minute and absorbances were read at 450 nm using a Biotek H1 Synergy Hybrid Reader (Winooski, Vt.). […]
Data set [3] deals with human red blood cells. The experiment in a line: Minimum hemolysis concentration (MHC) assay. As to conditions: concentration causing 90% hemolysis of human red blood cells, 37° C., 2 hours.
Protocol: (§3) Whole human blood (sodium heparin) was purchased from Bioreclamation LLC (Westbury, N.Y.) and stored at 4° C. and used within two days of receipt. To a 2.0 mL Eppendorf tube, 1 mL of whole human blood was added and centrifuged at 10,000 g for 2 minutes. The supernatant was removed and the erythrocyte pellet was washed with 1 mL of sterile saline and centrifuged at 10,000 g for 2 minutes. The saline wash was repeated for a total of three washes. The erythrocyte pellet was suspended in 1 mL of RBC buffer (10 mM NaH2PO4, 150 mM NaCl, 1 mM MgCl2, pH 7.4) to form the erythrocyte stock suspension.
(§4) Compounds were prepared as 1.03 min (AmB) or 12.8 min (C2′epiAmB) stock solutions in DMSO and serially diluted to the following concentrations with DMSO: 7689, 5126, 2563, 2050, 1538, 1025, 769, 513, 384, 256, 205, 154, 103, 77, 51, 26 μM. […] Positive and negative controls were prepared by adding 1 μL of DMSO to MilliQ water or RBC buffer, respectively to 0.2 mL PCR tube. To each PCR tube, 0.63 μL of the erythrocyte stock suspension was added and mixed by inversion. The samples were incubated at 37° C. for 2 hours. The samples were mixed by inversion and centrifuged at 10,000 g for 2 minutes. […] Absorbances were read at 540 nm using a Biotek H1 Synergy Hybrid Reader (Winooski, Vt.). […]
(§5) Percent hemolysis was determined according to the following equation: […]
A short description of data set [4]: Isothermal titration calorimetry with POPC LUVs containing 10% ergosterol. The format is binding. As to conditions: ITC; for Ergosterol binding (net exotherm vs sterol-free LUVs): result in words. The procedure:
(§1) In an optimized isothermal titration calorimetry (ITC)-based assay, an aqueous solution of AmB was titrated with a suspension of large unilamellar vesicles (LUVs) comprised of only 1-palmitoyl-2-oleoyl-sn-glycero-3-phosphocholine (POPC), and the net exotherm was recorded. The titration was repeated using POPC LUVs containing 10% ergosterol. […] The titration was repeated using C2′epiAmB. […] The ITC assay was also conducted with cholesterol in place of ergosterol.
(§2) Experiments were performed using a NanoITC isothermal titration calorimeter (TA Instruments, Wilmington, Del.). Solutions of the compounds to be tested were prepared by diluting a 60.0 mM stock solution of the compound in DMSO to 600 μM with K buffer (5.0 mM HEPES/KHEPES, pH=7.4). The final DMSO concentration in the solution was 1% v/v. Large unilamellar vesicles comprised of only 1-palmitoyl-2-oleoyl-sn-glycero-3-phosphocholine (POPC LUVs) were prepared and phosphorus and ergosterol content was quantified as described below. The LUV solutions were diluted with buffer and DMSO to give a final phospholipid concentration of 12.0 mM in a 1% DMSO/K buffer solution. Immediately prior to use, all solutions were incubated at 37° C. for 30 minutes and degassed under vacuum at 37° C. for 10 minutes. The reference cell of the instrument (volume=0.190 mL) was filled with a solution of 1% v/v DMSO/K buffer.
Palmitoyl oleoyl phosphatidylcholine (POPC) was obtained as a 20 mg/mL solution in CHCl3 from Avanti Polar Lipids (Alabaster, Ala.) and was stored at −20° C. under an atmosphere of dry argon and used within 1 month. A 4 mg/mL solution of ergosterol in CHCl3 was prepared monthly and stored at 4° C. under an atmosphere of dry argon. Prior to preparing a lipid film, the solutions were warmed to ambient temperature to prevent condensation from contaminating the solutions. A 13×100 mm test tube was charged with 800 μL POPC and 230 μL of the ergosterol solution. For cholesterol-containing liposomes, a 13×100 mm test tube was charged with 800 μL POPC and 224 μL of the […] solution. […]
Background: In ITC the heat of successive injections is recorded.

The subject of data set [5] is S. cerevisiae. The experiment in a line: Broth microdilution MIC assay, S. cerevisiae. The format is cell-based. As to conditions: Saccharomyces cerevisiae, 30° C., 24 hours, no visible growth. (Dilution methods test growth across graded concentrations, often in twofold steps.)
Protocol: Liquid cultures were incubated at 30° C. on a rotary shaker and solid cultures were maintained at 30° C. in an incubator.
(§6) The protocol for the broth microdilution assay was adapted from the Clinical and Laboratory Standards Institute document M27-A2. […] 50 mL of YPD media was inoculated and incubated overnight at either 30° C. (S. cerevisiae) or 37° C. (C. albicans) in a shaker incubator. The cell suspension was then diluted with YPD to an OD600 of 0.10 (˜5×10^5 cfu/mL) as measured by a Shimadzu (Kyoto, Japan) PharmaSpec UV-1700 UV/Vis spectrophotometer. The solution was diluted 10-fold with YPD, and 195 μL aliquots of the dilute cell suspension were added to sterile Falcon (Franklin Lakes, N.J.) Microtest 96-well plates in triplicate. Compounds may be prepared as 400 μM stock solutions in DMSO and serially diluted to the following concentrations with DMSO: 1600, 1200, 800, 400, 320, 240, 200, 160, 120, 80, 40, 20, 10 and 5 μM. 5 μL aliquots of each solution were added to the 96-well plate in triplicate, with each column representing a different concentration of the test compound. […] This 40-fold dilution gave the following final concentrations: 50, 40, 30, 20, 10, 8, 6, 4, 1, 0.5, 0.25 and 0.125 μM. The plates were covered and incubated at 30° C. (S. cerevisiae) or 37° C. (C. albicans) for 24 hours prior to analysis. […]
Data set [6] can be described thus: Isothermal titration calorimetry with POPC LUVs containing 10% cholesterol. The format is binding. As to conditions: ITC. The procedure: as §1
as §2, with “buffer. […]” for “buffer.”

In data set [7] the test system is C. albicans. The experiment in a line: Mouse model of disseminated candidiasis. Format: in vivo. To be noted: neutropenic mice, single i.p. 16 mg/kg 2 hours post infection, kidneys at 24 hours post infection. The procedure: The antifungal efficacy of C2′epiAmB was tested in a mouse model of disseminated candidiasis. In this experiment neutropenic mice were infected with C. albicans via their tail veins, and then 2 hours post infection the mice were treated with a single intraperitoneal injection of 16 mg/kg AmB or C2′epiAmB. Then at 24 hours post infection the mice were sacrificed, and the fungal burden present in their kidneys was quantified.

Data set [8] concerns human red blood cells. As to conditions: 2 h, pH 7.4.
Protocol: as §3, §4, §5
A short description of data set [9]: Isothermal titration calorimetry with sterol-free POPC LUVs. Format: binding. As to conditions: ITC, no sterol (POPC LUVs), 600 μM compound, 25° C. As for the experimental part: as §1
as §2, with “buffer. […]” for “buffer.”

The test system of data set [10] is C. albicans. The data set can be described thus: Broth microdilution MIC assay, C. albicans. As to conditions: Candida albicans, 37° C., 24 hours, no visible growth. Format: cell-based.
Protocol: C. albicans was cultured in a similar manner to S. cerevisiae except both liquid and solid cultures were incubated at 37° C.
as §6

Structures are written as SMILES. Values after ≈ are worked out from the molar mass of the structure shown. Like-named read-outs stand apart in the source and are kept apart here. Some results are limits rather than exact numbers.

As for `C[C@@H]1[C@H](O)[C@@H](C)/C=C/C=C/C=C/C=C/C=C/C=C/C=C/[C@H](O[C@@H]2O[C@H](C)[C@@H](O)[C@H](N)[C@@H]2O)C[C@@H]2O[C@](O)(C[C@@H](O)C[C@@H](O)[C@H](O)CC[C@@H](O)C[C@@H](O)CC(=O)O[C@H]1C)C[C@H](O)[C@H]2C(=O)O` [AmB, amphotericin B], in data set [1] (4 mg/kg), the Lethality entry is listed as “died within seconds”. For the same compound, the “minimum toxic concentration (MTC)” value in data set [2] amounted to 2.4 µM. Moreover, the “minimum hemolytic concentration (MHC)” value in data set [3] turned out to be 8.5 µM. The “Ergosterol binding (net exotherm vs sterol-free LUVs)” value in [4] is “significant increase in net exotherm”.

For `C[C@@H]1[C@H](O)[C@@H](C)/C=C/C=C/C=C/C=C/C=C/C=C/C=C/[C@H](O[C@@H]2O[C@H](C)[C@@H](O)[C@H](N)[C@H]2O)C[C@@H]2O[C@](O)(C[C@@H](O)C[C@@H](O)[C@H](O)CC[C@@H](O)C[C@@H](O)CC(=O)O[C@H]1C)C[C@H](O)[C@H]2C(=O)O` [C2′epiAmB], the Lethality result in data set [1] (up to 16 mg/kg) was “no deaths observed”. For the same compound, the MIC in data set [5] and in data set [10] was 2 µM (≈ 1.85 µg/mL) each time. For the same compound, the Total exotherm in [6] (POPC LUVs with 10% cholesterol, 600 μM compound, 25° C.) was -6.43 ± 2.80 µcal; in data set [9] it was -6.70 ± 0.11 µcal; in data set [4] (POPC LUVs with 10% ergosterol, 600 μM compound, 25° C.), -15.24 ± 1.66 µcal. In addition, the Cholesterol binding result in data set [6] (result in words) was “not found to bind to cholesterol”. Also, the “Reduction of fungal burden relative to AmB” value in data set [7] turned out to be 0.5 log units. Moreover, in data set [7] (result in words), the “Reduction of fungal burden in kidneys compared with AmB” value is recorded as “more effective than AmB”. For the same compound, the “minimum hemolytic concentration (MHC)” value in data set [8] was above 500 µM. Besides, the “minimum toxic concentration (MTC)” value in data set [2] is reported as “no evidence of toxicity up to the limits of solubility”. The “Ergosterol binding (net exotherm vs sterol-free LUVs)” value in data set [4] is “binds to ergosterol”.

The record behind these values is patent publication US10683318B2, “Scalable synthesis of reduced toxicity derivative of amphotericin B” (priority 2014, dated 2020).
